How the values were obtained:
[1] = tested on: Hepatotoxicity; assay: Literature-mined compound from Fourches et al multi-species drug-induced liver injury (DILI) dataset, effect in non-rodents
[2] = tested on: Hepatotoxicity; assay: Literature-mined compound from Fourches et al multi-species drug-induced liver injury (DILI) dataset, effect in humans; conditions: human
[3] = tested on: Hepatotoxicity; assay: Literature-mined compound from Fourches et al multi-species drug-induced liver injury (DILI) dataset, effect in rodents; conditions: rodentia

With `Nc1nc2c(ncn2CCC(CO)CO)c(=O)[nH]1` [PENCICLOVIR] the Hepatotoxicity [1] was “no drug-induced liver injury reported”, the Hepatotoxicity [2] was “drug-induced liver injury reported” and the Hepatotoxicity [3] was “no drug-induced liver injury reported”.

`CC(C)(S)[C@@H](N)C(=O)O` [PENICILLAMINE] was tested, and the Hepatotoxicity [1] was “drug-induced liver injury reported”, the Hepatotoxicity [2] was “drug-induced liver injury reported” and the Hepatotoxicity [3] was “drug-induced liver injury reported”.

`CC1(C)S[C@@H]2[C@H](NC(=O)Cc3ccccc3)C(=O)N2[C@H]1C(=O)O` [PENICILLIN G] was tested, and the Hepatotoxicity [1] was “drug-induced liver injury reported”, the Hepatotoxicity [2] was “drug-induced liver injury reported” and the Hepatotoxicity [3] was “drug-induced liver injury reported”.

In the case of `CSCC[C@H](NC(=O)[C@H](Cc1c[nH]c2ccccc12)NC(=O)CCNC(=O)OC(C)(C)C)C(=O)N[C@@H](CC(=O)O)C(=O)N[C@@H](Cc1ccccc1)C(N)=O` [PENTAGASTRIN], the Hepatotoxicity [1] is reported as “no drug-induced liver injury reported”, the Hepatotoxicity [2] is reported as “drug-induced liver injury reported” and the Hepatotoxicity [3] is reported as “drug-induced liver injury reported”.

For `CCCC(C)C1(CC)C(=O)NC(=O)NC1=O` (stereo not given) [PENTOBARBITAL], the Hepatotoxicity [1] was “drug-induced liver injury reported”, the Hepatotoxicity [2] was “drug-induced liver injury reported” and the Hepatotoxicity [3] was “drug-induced liver injury reported”.

For `CC(=O)CCCCn1c(=O)c2c(ncn2C)n(C)c1=O` [PENTOXIFYLLINE], the Hepatotoxicity [1] was “drug-induced liver injury reported”, the Hepatotoxicity [2] was “drug-induced liver injury reported” and the Hepatotoxicity [3] was “drug-induced liver injury reported”.

With `CN1CCN(CCCN2c3ccccc3Sc3ccccc32)CC1` [PERAZINE] the Hepatotoxicity [1] was “no drug-induced liver injury reported”, the Hepatotoxicity [2] was “drug-induced liver injury reported” and the Hepatotoxicity [3] was “no drug-induced liver injury reported”.

For `Clc1c(Cl)c(Cl)c(Cl)c(Cl)c1Cl` [PERCHLOROBENZENE], the Hepatotoxicity [1] was “no drug-induced liver injury reported”, the Hepatotoxicity [2] was “drug-induced liver injury reported” and the Hepatotoxicity [3] was “drug-induced liver injury reported”.

With `FC(F)(F)C(F)(F)C(F)(F)C(F)(F)C(F)(F)C(F)(F)C(F)(F)C(F)(F)Br` [PERFLUBRON] the Hepatotoxicity [1] was “drug-induced liver injury reported”, the Hepatotoxicity [2] was “drug-induced liver injury reported” and the Hepatotoxicity [3] was “no drug-induced liver injury reported”.

For `CCC[C@H](N[C@@H](C)C(=O)N1[C@H](C(=O)O)C[C@@H]2CCCC[C@@H]21)C(=O)OCC` [PERINDOPRIL], the Hepatotoxicity [1] was “no drug-induced liver injury reported”, the Hepatotoxicity [2] was “drug-induced liver injury reported” and the Hepatotoxicity [3] was “drug-induced liver injury reported”.

In the case of `CC1(C)C(C=C(Cl)Cl)C1C(=O)OCc1cccc(Oc2ccccc2)c1` (stereo not given) [PERMETHRIN], the Hepatotoxicity [1] is reported as “no drug-induced liver injury reported”, the Hepatotoxicity [2] is reported as “no drug-induced liver injury reported” and the Hepatotoxicity [3] is reported as “drug-induced liver injury reported”.

With `OCCN1CCN(CCCN2c3ccccc3Sc3ccc(Cl)cc32)CC1` [PERPHENAZINE] the Hepatotoxicity [1] was “no drug-induced liver injury reported”, the Hepatotoxicity [2] was “no drug-induced liver injury reported” and the Hepatotoxicity [3] was “drug-induced liver injury reported”.

In the case of `CCOc1ccc(NC(C)=O)cc1` [PHENACETIN], the Hepatotoxicity [1] is reported as “no drug-induced liver injury reported”, the Hepatotoxicity [2] is reported as “drug-induced liver injury reported” and the Hepatotoxicity [3] is reported as “drug-induced liver injury reported”.

For `NNCCc1ccccc1` [PHENELZINE], the Hepatotoxicity ([1]; Liver) was “no drug-induced liver injury reported”, the Hepatotoxicity ([2]; Liver) was “drug-induced liver injury reported” and the Hepatotoxicity ([3]; Liver) was “drug-induced liver injury reported”.

With `[H]/N=C(/N)N/C(=N/[H])NCCc1ccccc1` [PHENFORMIN] the Hepatotoxicity [1] was “no drug-induced liver injury reported”, the Hepatotoxicity [2] was “no drug-induced liver injury reported” and the Hepatotoxicity [3] was “drug-induced liver injury reported”.

With `CCC1(c2ccccc2)C(=O)NC(=O)NC1=O` [PHENOBARBITAL] the Hepatotoxicity [1] was “drug-induced liver injury reported”, the Hepatotoxicity [2] was “drug-induced liver injury reported” and the Hepatotoxicity [3] was “drug-induced liver injury reported”.

With `O=C1OC(c2ccc(O)cc2)(c2ccc(O)cc2)c2ccccc21` [PHENOLPHTHALEIN] the Hepatotoxicity [1] was “no drug-induced liver injury reported”, the Hepatotoxicity [2] was “no drug-induced liver injury reported” and the Hepatotoxicity [3] was “drug-induced liver injury reported”.

With `Oc1ccccc1` [PHENOL] the Hepatotoxicity ([1]; Liver) was “no drug-induced liver injury reported”, the Hepatotoxicity ([2]; Liver) was “drug-induced liver injury reported” and the Hepatotoxicity ([3]; Liver) was “drug-induced liver injury reported”.

`CC(COc1ccccc1)N(CCCl)Cc1ccccc1` (stereo not given) [PHENOXYBENZAMINE] was tested, and the Hepatotoxicity [1] was “no drug-induced liver injury reported”, the Hepatotoxicity [2] was “no drug-induced liver injury reported” and the Hepatotoxicity [3] was “drug-induced liver injury reported”.

In the case of `CCC(c1ccccc1)c1c(O)c2ccccc2oc1=O` (stereo not given) [PHENPROCOUMON], the Hepatotoxicity [1] is reported as “no drug-induced liver injury reported”, the Hepatotoxicity [2] is reported as “drug-induced liver injury reported” and the Hepatotoxicity [3] is reported as “no drug-induced liver injury reported”.

`Cc1ccc(N(CC2=NCCN2)c2cccc(O)c2)cc1` [PHENTOLAMINE] was tested, and the Hepatotoxicity [1] was “drug-induced liver injury reported”, the Hepatotoxicity [2] was “no drug-induced liver injury reported” and the Hepatotoxicity [3] was “drug-induced liver injury reported”.

In the case of `O=C(O)Cc1ccccc1` [PHENYLACETIC ACID], the Hepatotoxicity [1] is reported as “no drug-induced liver injury reported”, the Hepatotoxicity [2] is reported as “no drug-induced liver injury reported” and the Hepatotoxicity [3] is reported as “drug-induced liver injury reported”.

`CNC[C@H](O)c1cccc(O)c1` [PHENYLEPHRINE] was tested, and the Hepatotoxicity [1] was “drug-induced liver injury reported”, the Hepatotoxicity [2] was “drug-induced liver injury reported” and the Hepatotoxicity [3] was “drug-induced liver injury reported”.

For `OC(CNc1ccccn1)c1ccccc1` (stereo not given) [PHENYRAMIDOL], the Hepatotoxicity [1] was “no drug-induced liver injury reported”, the Hepatotoxicity [2] was “drug-induced liver injury reported” and the Hepatotoxicity [3] was “no drug-induced liver injury reported”.

`O=C1NC(=O)C(c2ccccc2)(c2ccccc2)N1` [PHENYTOIN] was tested, and the Hepatotoxicity ([1]; Liver) was “drug-induced liver injury reported”, the Hepatotoxicity ([2]; Liver) was “drug-induced liver injury reported” and the Hepatotoxicity ([3]; Liver) was “drug-induced liver injury reported”.

In the case of `CNC(=O)Oc1ccc2c(c1)[C@]1(C)CCN(C)[C@@H]1N2C` [PHYSOSTIGMINE], the Hepatotoxicity [1] is reported as “no drug-induced liver injury reported”, the Hepatotoxicity [2] is reported as “no drug-induced liver injury reported” and the Hepatotoxicity [3] is reported as “drug-induced liver injury reported”.

In the case of `CC[C@@H]1C(=O)OC[C@@H]1Cc1cncn1C` [PILOCARPINE], the Hepatotoxicity [1] is reported as “no drug-induced liver injury reported”, the Hepatotoxicity [2] is reported as “no drug-induced liver injury reported” and the Hepatotoxicity [3] is reported as “drug-induced liver injury reported”.

For `N=C(N)NN` [PIMAGEDINE], the Hepatotoxicity [1] was “no drug-induced liver injury reported”, the Hepatotoxicity [2] was “no drug-induced liver injury reported” and the Hepatotoxicity [3] was “drug-induced liver injury reported”.

`O=c1[nH]c2ccccc2n1C1CCN(CCCC(c2ccc(F)cc2)c2ccc(F)cc2)CC1` [PIMOZIDE] was tested, and the Hepatotoxicity [1] was “no drug-induced liver injury reported”, the Hepatotoxicity [2] was “drug-induced liver injury reported” and the Hepatotoxicity [3] was “no drug-induced liver injury reported”.

`CC(N/C(=N\C#N)Nc1ccncc1)C(C)(C)C` (stereo not given) [PINACIDIL ANHYDROUS] was tested, and the Hepatotoxicity [1] was “no drug-induced liver injury reported”, the Hepatotoxicity [2] was “drug-induced liver injury reported” and the Hepatotoxicity [3] was “drug-induced liver injury reported”.

In the case of `CCn1cc(C(=O)O)c(=O)c2cnc(N3CCNCC3)nc21` [PIPEMIDIC ACID], the Hepatotoxicity [1] is reported as “no drug-induced liver injury reported”, the Hepatotoxicity [2] is reported as “drug-induced liver injury reported” and the Hepatotoxicity [3] is reported as “no drug-induced liver injury reported”.

`CCN1CCN(C(=O)N[C@@H](C(=O)N[C@@H]2C(=O)N3[C@@H]2SC(C)(C)[C@@H]3C(=O)O)c2ccccc2)C(=O)C1=O` [PIPERACILLIN] was tested, and the Hepatotoxicity [1] was “drug-induced liver injury reported”, the Hepatotoxicity [2] was “no drug-induced liver injury reported” and the Hepatotoxicity [3] was “drug-induced liver injury reported”.

With `C1CNCCN1` [PIPERAZINE] the Hepatotoxicity ([1]; Liver) was “no drug-induced liver injury reported”, the Hepatotoxicity ([2]; Liver) was “no drug-induced liver injury reported” and the Hepatotoxicity ([3]; Liver) was “drug-induced liver injury reported”.

For `CCCCOCCOCCOCc1cc2c(cc1CCC)OCO2` [PIPERONYL BUTOXIDE], the Hepatotoxicity ([1]; Liver) was “no drug-induced liver injury reported”, the Hepatotoxicity ([2]; Liver) was “no drug-induced liver injury reported” and the Hepatotoxicity ([3]; Liver) was “drug-induced liver injury reported”.

For `Cc1ccc(=O)n(-c2ccccc2)c1` [PIRFENIDONE], the Hepatotoxicity [1] was “drug-induced liver injury reported”, the Hepatotoxicity [2] was “no drug-induced liver injury reported” and the Hepatotoxicity [3] was “drug-induced liver injury reported”.

In the case of `COc1ccc(OC)c(Cc2cnc3nc(N)nc(N)c3c2C)c1` [PIRITREXIM], the Hepatotoxicity [1] is reported as “no drug-induced liver injury reported”, the Hepatotoxicity [2] is reported as “drug-induced liver injury reported” and the Hepatotoxicity [3] is reported as “no drug-induced liver injury reported”.

For `CN1C(C(=O)Nc2ccccn2)=C(O)c2ccccc2S1(=O)=O` [PIROXICAM], the Hepatotoxicity [1] was “no drug-induced liver injury reported”, the Hepatotoxicity [2] was “drug-induced liver injury reported” and the Hepatotoxicity [3] was “drug-induced liver injury reported”.

For `CC(C(=O)O)c1ccc(N2CC=CC2)c(Cl)c1` (stereo not given) [PIRPROFEN], the Hepatotoxicity [1] was “no drug-induced liver injury reported”, the Hepatotoxicity [2] was “drug-induced liver injury reported” and the Hepatotoxicity [3] was “drug-induced liver injury reported”.

With `O=C(O)C[C@H](O)C[C@H](O)/C=C/c1c(C2CC2)nc2ccccc2c1-c1ccc(F)cc1` [PITAVASTATIN] the Hepatotoxicity [1] was “no drug-induced liver injury reported”, the Hepatotoxicity [2] was “drug-induced liver injury reported” and the Hepatotoxicity [3] was “drug-induced liver injury reported”.

For `CN1CCC(=C2c3ccccc3CCc3sccc32)CC1` [PIZOTYLINE], the Hepatotoxicity [1] was “no drug-induced liver injury reported”, the Hepatotoxicity [2] was “drug-induced liver injury reported” and the Hepatotoxicity [3] was “no drug-induced liver injury reported”.

From ChEMBL document CHEMBL1697731, “Cheminformatics analysis of assertions mined from literature that describe drug-induced liver injury in different species” (Chem Res Toxicol, 2010)
